In brackets after ≈: the same amount, converted by molar mass.
Tests used:
Leishmania donovani [1] = experiment: Antileishmanial activity against amastigote stage of Leishmania donovani infected in human THP1 cells after 48 hrs by Alamar blue assay; type: functional, organism-based; conditions: THP-1, 48 h
THP-1 = experiment: Cytotoxicity against human THP1 cells after 48 hrs by Alamar blue assay; type: ADME, cell-based; conditions: THP-1, 48 h
Leishmania donovani [2] = experiment: Antileishmanial activity against axenic amastigote stage of Leishmania donovani after 72 hrs by Alamar blue assay; type: functional, organism-based
Leishmania donovani [3] = experiment: Antileishmanial activity against promastigote stage of Leishmania donovani after 72 hrs by Alamar blue assay; type: functional, organism-based
Leishmania donovani [4] = experiment: Selectivity ratio of IC50 for axenic amastigote stage of Leishmania donovani to IC50 for amastigote stage of Leishmania donovani infected in human THP1 cells; type: functional, THP-1
[5] = target: T1, Protein deacetylase HDAC6 (Homo sapiens, UniProt Q9UBN7); experiment: Inhibition of HDAC6 in human LNCAP cells assessed as tubulin acetylation by Western blot analysis; type: cell-based
T1 sequence (Q9UBN7 whole entry): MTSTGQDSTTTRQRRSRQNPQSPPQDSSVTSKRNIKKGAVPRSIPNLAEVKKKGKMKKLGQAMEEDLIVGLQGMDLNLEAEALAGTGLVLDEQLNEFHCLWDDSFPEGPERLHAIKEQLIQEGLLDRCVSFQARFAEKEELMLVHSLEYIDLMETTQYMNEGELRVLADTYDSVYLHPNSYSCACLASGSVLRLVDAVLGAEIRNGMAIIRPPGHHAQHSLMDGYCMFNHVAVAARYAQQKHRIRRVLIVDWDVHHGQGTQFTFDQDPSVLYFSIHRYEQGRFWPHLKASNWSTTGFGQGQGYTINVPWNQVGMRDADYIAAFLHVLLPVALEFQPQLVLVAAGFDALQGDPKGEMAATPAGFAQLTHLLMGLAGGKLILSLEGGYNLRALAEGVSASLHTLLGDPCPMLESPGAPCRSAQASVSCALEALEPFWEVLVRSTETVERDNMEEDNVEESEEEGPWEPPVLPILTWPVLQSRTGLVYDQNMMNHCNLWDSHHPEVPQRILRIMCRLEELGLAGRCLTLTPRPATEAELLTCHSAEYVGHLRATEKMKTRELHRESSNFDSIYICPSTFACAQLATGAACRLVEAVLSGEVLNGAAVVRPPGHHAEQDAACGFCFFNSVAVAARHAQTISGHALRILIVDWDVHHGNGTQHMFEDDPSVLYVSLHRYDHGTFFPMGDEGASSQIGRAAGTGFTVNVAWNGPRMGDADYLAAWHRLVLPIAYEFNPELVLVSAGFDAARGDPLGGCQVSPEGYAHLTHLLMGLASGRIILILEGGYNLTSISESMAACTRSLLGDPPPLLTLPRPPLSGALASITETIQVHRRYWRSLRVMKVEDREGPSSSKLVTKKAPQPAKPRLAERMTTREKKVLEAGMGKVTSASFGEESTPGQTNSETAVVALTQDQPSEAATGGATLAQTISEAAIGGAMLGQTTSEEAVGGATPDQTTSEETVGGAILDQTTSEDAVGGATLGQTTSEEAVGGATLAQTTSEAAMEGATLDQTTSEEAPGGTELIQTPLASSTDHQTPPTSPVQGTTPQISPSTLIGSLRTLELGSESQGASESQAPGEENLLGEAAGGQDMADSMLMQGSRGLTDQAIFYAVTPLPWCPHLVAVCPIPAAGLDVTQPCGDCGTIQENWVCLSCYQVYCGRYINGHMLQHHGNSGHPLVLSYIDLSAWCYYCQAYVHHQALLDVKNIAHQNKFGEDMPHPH

DU-145 = experiment: Cytotoxicity against human DU145 cells; type: functional, cell-based
Jurkat = experiment: Cytotoxicity against human Jurkat cells; type: functional, cell-based
LNCaP = experiment: Cytotoxicity against human LNCAP cells; type: functional, cell-based
[6] = Cytotoxicity against human Jurkat gamma1 cells; type: functional, cell-based

| IC50 [5] [µM] | SMILES | IC50 (Leishmania donovani [1]) [µg/mL] | IC50 (THP-1) [µg/mL] | IC50 (Leishmania donovani [2]) [µg/mL] | IC50 (Leishmania donovani [3]) [µg/mL] | Ratio IC50 (Leishmania donovani [4]) | IC50 (DU-145) [µM] | IC50 (Jurkat) [µM] | IC50 (LNCaP) [µM] | IC50 [6] |
| --- | --- | --- | --- | --- | --- | --- | --- | --- | --- | --- |
|  | COc1ccc(Cn2ccc3ccc(C(=O)NO)cc32)cc1 | > 10 | > 10 | > 40 |  |  |  |  |  |  |
|  | O=c1c(O)cccn1Cc1ccc(-c2ccccc2)cc1 | 1.7 (≈ 6.13 µM) | > 10 | 30.9 (≈ 111 µM) | 6.8 (≈ 24.5 µM) |  |  |  |  |  |
|  | O=c1c(O)cccn1Cc1ccccc1 | > 10 | > 10 | > 40 | 9.3 (≈ 46.2 µM) |  |  |  |  |  |
|  | N#Cc1cccc(-c2ccc(Cn3cccc(O)c3=O)cc2)c1 | 2.3 (≈ 7.61 µM) | > 10 | > 40 | 9 (≈ 29.8 µM) |  |  |  |  |  |
|  | Cc1ccc(-c2ccc(Cn3cccc(O)c3=O)cc2)cc1 | > 10 | > 10 | 29 (≈ 99.5 µM) | 6 (≈ 20.6 µM) |  |  |  |  |  |
|  | Cc1cccc(-c2ccc(Cn3cccc(O)c3=O)cc2)c1 | > 10 | > 10 | 32.5 (≈ 112 µM) | 12.6 (≈ 43.2 µM) |  |  |  |  |  |
|  | Cc1ccccc1-c1ccc(Cn2cccc(O)c2=O)cc1 | > 10 | > 10 | 31.6 (≈ 108 µM) | 27.6 (≈ 94.7 µM) |  |  |  |  |  |
|  | CN(C)c1ccc(-c2ccc(Cn3cccc(O)c3=O)cc2)cc1 | > 10 | > 10 | 4 (≈ 12.5 µM) | 7.5 (≈ 23.4 µM) |  |  |  |  |  |
|  | CN(C)c1ccc(-c2ccc(Cn3cccc(O)c3=O)cc2)cn1 | > 10 | > 10 | > 40 | 38.9 (≈ 121 µM) |  |  |  |  |  |
|  | N#Cc1ccc(-c2ccc(Cn3cccc(O)c3=O)cc2)cc1 | 3.5 (≈ 11.6 µM) | > 10 | 5 (≈ 16.5 µM) | 4.6 (≈ 15.2 µM) |  |  |  |  |  |
|  | CN(C)c1ccc(-n2cc(Cn3cccc(O)c3=S)nn2)cc1 | 1.5 (≈ 4.58 µM) | > 10 | 5.3 (≈ 16.2 µM) | 1.3 (≈ 3.97 µM) |  |  |  |  |  |
|  | Oc1cccn(Cc2cn(-c3ccccc3)nn2)c1=S | 2.7 (≈ 9.5 µM) | > 10 | 6.2 (≈ 21.8 µM) | 3.2 (≈ 11.3 µM) |  |  |  |  |  |
|  | CN(C)c1ccc(-c2ccc(Cn3cccc(O)c3=S)cc2)cn1 | 2.6 (≈ 7.7 µM) | > 10 | 6.1 (≈ 18.1 µM) | 2.3 (≈ 6.82 µM) |  |  |  |  |  |
|  | CN(C)c1ccc(-c2ccc(Cn3cccc(O)c3=S)cc2)cc1 | 0.3 (≈ 0.892 µM) | > 10 | 7.4 (≈ 22 µM) | 0.2 (≈ 0.594 µM) | 5 |  |  |  |  |
| 7.75 | Cc1ccccc1-c1ccc(Cn2cccc(O)c2=S)cc1 | 2.1 (≈ 6.83 µM) | > 10 | 34.4 (≈ 112 µM) | 0.3 (≈ 0.976 µM) |  | 13.6 |  |  |  |
|  | Cc1cccc(-c2ccc(Cn3cccc(O)c3=S)cc2)c1 | > 10 | > 10 | 32.6 (≈ 106 µM) | 0.3 (≈ 0.976 µM) |  |  |  |  |  |
|  | Cc1ccc(-c2ccc(Cn3cccc(O)c3=S)cc2)cc1 | 3.7 (≈ 12 µM) | > 10 | 31.3 (≈ 102 µM) | 0.3 (≈ 0.976 µM) |  |  |  |  |  |
|  | N#Cc1cccc(-c2ccc(Cn3cccc(O)c3=S)cc2)c1 | 3.9 (≈ 12.2 µM) | > 10 | 11.2 (≈ 35.2 µM) | 0.4 (≈ 1.26 µM) |  |  |  |  |  |
|  | N#Cc1ccc(-c2ccc(Cn3cccc(O)c3=S)cc2)cc1 | 0.9 (≈ 2.83 µM) | > 10 | 6.1 (≈ 19.2 µM) | 0.7 (≈ 2.2 µM) | 5 |  |  |  |  |
|  | Oc1cccn(Cc2ccc(-c3ccccc3)cc2)c1=S | 0.6 (≈ 2.05 µM) | > 10 | 6.3 (≈ 21.5 µM) | 0.1 (≈ 0.341 µM) | 5 |  |  |  |  |
|  | Oc1ccc[nH]c1=S | 6.1 (≈ 48 µM) | > 10 | 30.7 (≈ 241 µM) | 12.7 (≈ 99.9 µM) |  |  |  |  |  |
|  | Oc1cccn(Cc2ccccc2)c1=S | 5.8 (≈ 26.7 µM) | > 10 | 6.5 (≈ 29.9 µM) | 0.1 (≈ 0.46 µM) |  |  |  |  |  |
|  | Oc1cccnc1O | > 10 | > 10 | > 40 | > 40 |  |  |  |  |  |
|  | N#Cc1ccccc1-c1ccc(Cn2cccc(O)c2=O)cc1 | 1.8 (≈ 5.95 µM) | > 10 | > 40 | 26.7 (≈ 88.3 µM) |  |  |  |  |  |
|  | N#Cc1ccccc1-c1ccc(Cn2cccc(O)c2=S)cc1 | > 10 | > 10 | 31.7 (≈ 99.6 µM) | 0.9 (≈ 2.83 µM) |  | > 20 | 8.95 | 14.7 | Not Active |
|  | O=c1c(O)cccn1Cc1cn(-c2ccccc2)nn1 | > 10 | > 10 | 18 (≈ 67.1 µM) | > 40 |  |  |  |  |  |
|  | CN(C)c1ccc(-n2cc(Cn3cccc(O)c3=O)nn2)cc1 | 2 (≈ 6.42 µM) | > 10 | > 40 | 14.5 (≈ 46.6 µM) |  |  |  |  |  |
|  | C[C@@H]1[C@H](O)[C@@H](C)/C=C/C=C/C=C/C=C/C=C/C=C/C=C/[C@H](O[C@@H]2O[C@H](C)[C@@H](O)[C@H](N)[C@@H]2O)C[C@@H]2O[C@](O)(C[C@@H](O)C[C@@H](O)[C@H](O)CC[C@@H](O)C[C@@H](O)CC(=O)O[C@H]1C)C[C@H](O)[C@H]2C(=O)O [AMPHOTERICIN B] | 0.2 (≈ 0.216 µM) | > 10 | 1.6 (≈ 1.73 µM) |  |  |  |  |  |  |
|  | N=C(N)c1ccc(OCCCCCOc2ccc(C(=N)N)cc2)cc1 [PENTAMIDINE] | 0.4 (≈ 1.17 µM) | > 10 | 8.9 (≈ 26.1 µM) | 0.6 (≈ 1.76 µM) |  |  |  |  |  |
|  | CN1CCc2c(c3ccccc3n2Cc2ccc(C(=O)NO)cc2)C1 [TUBASTATIN A] |  | > 10 | 8.8 (≈ 26.2 µM) | 4.4 (≈ 13.1 µM) |  |  |  |  |  |
